In US20260193295A1, “CILAGICIN COMPOUNDS AND METHODS OF USE THEREOF” (priority 2022, published 2026):
Read-outs that look alike come from different tables or passages of the source. Positions of bridges follow the written chain, without caps; N, C: chain ends. Non-standard residues stand in square brackets, D forms with d. Residues, ends and D or L forms follow the SMILES beside them. *: point of attachment. Myristoyl = CCCCCCCCCCCCCC(=O)*; dDab = NCC[C@@H](N)C(=O)O; Dab = NCC[C@H](N)C(=O)O

Key:
[1] = test system: S. aureus USA300; format: cell-based, Staphylococcus aureus
Protocol: The effect of lipid II biosynthesis intermediates on cilagicin's antibacterial activity was evaluated using S. aureus USA300 and the general MIC assay methods described above with the following changes. Potential antagonizing compounds were mixed with cilagicin at a constant molar ratio of 5. Cilagicin mixed with solvent alone was used as a control. Premixed solutions were dried in vacuo for 2 hours to completely remove all organic solvent. They were then resuspended in LB broth and mixed with S. aureus. All assays were run in duplicate (n=2) and repeated two independent times (n=2).

[2] = Animal infection model (cilagicin, not further described); format: in vivo
[3] = test system: S. aureus USA300; assay: Membrane depolarization assay (DiSC3(5)); format: cell-based, Staphylococcus aureus; conditions: S. aureus exposed to 8-fold MIC
Protocol: The effect of cilagicin on membrane depolarization was analyzed using DiSC3(5) dye (Thermo Fisher, USA). Overnight cultures of S. aureus USA300 were harvested and resuspended in PBS (OD600 nm=0.37). Cell suspension (1 mL) and 10 μL of 4 μM DisC3(5) were pre-mixed and incubated in the dark at room temperature for 15 minutes. 50 μL of this mixture was then added to each well of black 96-well flat bottom black microtiter plates. The initial fluorescence intensity of each well was recorded using an infinite 200 PRO (Excitation/Emission=620/670 nm) at 9 second intervals for 15 minutes. 50 μL of a 1 μM solution of each test compound was then added to each well. Gramicidin (30 μM) and melittin (1 μM) were used as positive controls. DMSO was used as the vehicle control. The fluorescence intensity of each well was then monitored at 9 second intervals for another 15 minutes and plotted by Prism 9.0. All assays were performed in biological triplicate (n=3).

[4] = test system: S. aureus USA300; assay: Cell lysis assay (SYTOX green); format: cell-based, Staphylococcus aureus; conditions: S. aureus exposed to 8-fold MIC
Protocol: Cell lytic activity of cilagicin was evaluated using SYTOX green nucleic acid stain (Thermo Fisher, USA). Gramicidin and DMSO were used as positive and negative controls, respectively. S. aureus USA300 was grown overnight at 37° C. with shaking (200 rpm) and then diluted in fresh LB broth to an OD600nm of 0.35. 900 μL of this S. aureus USA300 suspension was mixed with 100 μL of SYTOX (17 μM in DMSO). The mixture was incubated at room temperature for 5 minutes, and then transferred into a 384-well flat bottom black microtiter plate (30 μL/well). The initial fluorescence intensity of each well was recorded using an infinite 200 PRO (Excitation/Emission=488/523 nm) at 9 second intervals for 5 minutes. […] The fluorescence intensity of each well was then continually monitored at 9 second intervals for 25 minutes and plotted by Prism 9.0. All assays were performed in biological triplicates (n=3).

[5] = test system: cell wall biosynthesis (UDP-MurNAc-pentapeptide) in S. aureus USA300; assay: UDP-MurNAc-pentapeptide accumulation assay; format: cell-based, Staphylococcus aureus; conditions: S. aureus cultures exposed at 1xMIC
Protocol: The effect of cilagicin on cell wall biosynthesis was investigated by tracking the accumulation UDP-MurNAc-pentapeptide in antibiotic treated cultures. Overnight S. aureus USA300 cultures were diluted in fresh LB broth and grown at 37° C. to an OD600 nm of 0.5. They were then treated with 130 μg/mL of chloramphenicol. After incubating at 37° C. for 15 minutes, 1 μg/mL of cilagicin was added. Vancomycin (10 μg/mL) and DMSO were used as positive and vehicle control, respectively. After an incubation of 60 mins, cells (0.5 mL) were harvested, and the cell pellet was resuspended in 30 μL ddH2O. The cell suspension was incubated in boiling water for 15 minutes and spun down at 15,000×g for 5 minutes. The supernatant was then analyzed by UPLC-DAD-MS (Acquity UPLC BEH C18, 2.1×50 mm, 1.7 μM, 130 Å, […] isocratic elution at 97% water:acetonitrile (ACN) for 1 minute, then from 97% to 5% water:ACN over 3 minutes, with constant 0.1% formic acid; negative ionization modes).

[6] = test system: S. aureus USA300; assay: Resistance studies (daily serial passage at sub-MIC); format: cell-based, Staphylococcus aureus
Protocol: A single colony of S. aureus USA300 was inoculated in 5 mL LB broth and grown overnight at 37° C. with continuous shaking (200 rpm). The overnight culture was then diluted 1:5,000 into fresh LB. 50 μL aliquots of dilute cells were transferred into individual wells of 96-well plates containing 50 μL of serially diluted cilagicin, amphomycin (AG Scientific, USA) or bacitracin (Sigma, USA). Plates were statically incubated at 37° C. After 24 hours, the MIC was recorded. […] The MIC was determined as described above. This process was repeated daily for 25 days. For bacitracin, the LB medium was supplemented with 50 μg/mL ZnCl2. For amphomycin, the medium was supplemented with 100 μg/mL CaCl2-2H2O. Experiments were performed three independent times (n=3).

[7] = Isothermal titration calorimetry (ITC); format: binding; conditions: 25° C., DOPC vesicles
Protocol: Isothermal titration calorimetry (ITC) The interaction of cilagicin and undecaprenyl phosphate (C55-P, Larodan, SE) or undecaprenyl diphosphate (C55-PP, Larodan, SE) was measured using ITC. Briefly, 0.1 μm of large unilamellar vesicles (LUVs) was prepared by mixing 1,2-dioleoyl-sn-glycero-3-phosphocholine (DOPC, Avanti, AL) and 0.1% of either C55-P or C55-PP in chloroform/methanol (2:1). The resulting lipid suspension was dried under argon gas for 2 hours and then rehydrated in 10 mM HEPES buffer (pH 7.5, 100 mM NaCl). The dried sample was filtered 10 times through an Avanti mini extruder (Avanti, AL) using a 0.1 μM filter membrane. ITC binding experiments were performed using a MicroCal Auto-iTC200. A vesicle suspension of 0.27 μM C55-P or 0.25 μM C55-PP and 2.5 mM DOPC in HEPES buffer was titrated into a freshly made solution of 0.1 mM cilagicin in the same buffer. The titration was conducted under the following conditions: temperature 25° C., reference power 5 uCals-1, syringe-stirring speed 750 rpm, number of injections 19, injection volume 2 μl, and time between injections 150 s. The calorimetric data obtained from the Auto-iTC200 instrument was analyzed using AFFINImeter software. Thermodynamic parameters (enthalpy (AH), entropy (AS), and the equilibrium binding constant (KD)) were calculated using a one-binding site model.

[8] = test system: S. aureus; assay: Direct plating of S. aureus on cilagicin-containing agar plates (resistant colonies); format: cell-based, Staphylococcus aureus; conditions: plating S. aureus directly on cilagicin-containing agar plates

CCCCCCCCCCCCCC(=O)N[C@H](CO)C(=O)N[C@@H]1C(=O)N[C@H](CCN)C(=O)N[C@@H](CC(=O)O)C(=O)NCC(=O)N[C@H](CC(N)=O)C(=O)N[C@H](CC(=O)O)C(=O)NCC(=O)N[C@@H](Cc2ccc(O)cc2)C(=O)N[C@@H](C(C)C)C(=O)N[C@@H](CCN)C(=O)N[C@@H](Cc2ccccc2)C(=O)O[C@@H]1C [Cilagicin] (Myristoyl-[dS]T[dDab]DG[dN][dD]GYV[Dab]F; ester 2-C)
molar ratio at which C55-P completely inhibited the bioactivity ([1]; S. aureus USA300, C55-P): ~ 1.25
molar ratio at which C55-PP gave complete inhibition ([1]; S. aureus USA300, C55-PP): ~ 2.5
MIC in the presence of C55-P ([1]; USA300): ≥ 64 µg/mL
bacterial burden [2]: did not reduce bacterial burden
membrane depolarization (DiSC3(5) fluorescence) [3]: No response was detected
cell lytic activity (SYTOX fluorescence) [4]: No response was detected
accumulation of UDP-MurNAc-pentapeptide (LCMS) [5]: obvious accumulation
maximum change in MIC (increase) ([6]; S. aureus USA300, after 25 days of constant exposure): 1 fold
cross resistance of bacitracin resistant and amphomycin resistant mutants ([6]; S. aureus mutants raised by serial passage): neither the highly bacitracin resistant mutants nor the highly amphomycin resistant mutants that were generated showed cross resistance
Kd ([7]; read-out: dissociation constant (Kd), C55P): 22 nM
Kd ([7]; read-out: dissociation constant (Kd), C55PP): 56 nM
colonies that showed more than a 2-fold increase in MIC (2 μg/mL) [8]: never observed
